The values that follow come from ChEMBL document CHEMBL1127315, “Substituted O6-benzylguanine derivatives and their inactivation of human O6-alkylguanine-DNA alkyltransferase” (J Med Chem, 1994).

The structures appear in SMILES notation. The source made the active and inactive calls. No cut-off for these calls is given here.

The target of test [1] is T1, Methylated-DNA--protein-cysteine methyltransferase (Homo sapiens) (UniProt P16455).
T1 sequence (whole entry): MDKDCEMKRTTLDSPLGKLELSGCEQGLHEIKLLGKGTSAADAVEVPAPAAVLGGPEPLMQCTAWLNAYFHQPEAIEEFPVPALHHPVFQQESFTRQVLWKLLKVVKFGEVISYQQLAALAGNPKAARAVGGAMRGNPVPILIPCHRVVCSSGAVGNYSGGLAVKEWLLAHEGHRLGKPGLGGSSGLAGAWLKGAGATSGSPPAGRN
Nature of the test: Tested for the effective dose required to produce 50 percent inactivation of O6-alkylguanine-DNA alkyltransferase in HT-29 cell free extract; Inactive.

The target of test [2] is T1, Methylated-DNA--protein-cysteine methyltransferase (Homo sapiens). The note with it: HT-29.
Test [3] has the same target. The following applies: HT-29. The source holds these as a separate data set.

With `Nc1nc(Oc2ccccc2)c2[nH]cnc2n1`, the ED50 result in test [1] is “inactive”.

For `CC12CCC(=O)C=C1CCC1C2CCC2(C)C(OC(=O)Cn3cnc4c(OCc5ccccc5)nc(N)nc43)CCC12` (stereo not given), the ED50 in test [2] was found to be 500 nM; in test [3] it was 5000 nM.

As to `C[C@]12CC[C@H]3[C@@H](CCC4CC(=O)CC[C@@]43C)[C@@H]1CC[C@@H]2OC(=O)Cn1cnc2c(OCc3ccccc3)nc(N)nc21` (stereo not given in full), the ED50 was 500 nM in test [2] and 4000 nM in test [3].
